Data on 26 compounds can be found in patent US20100144793A1, “NOVEL COMPOUNDS FOR THE TREATMENT OF DISEASES ASSOCIATED WITH AMYLOID OR AMYLOID-LIKE PROTEINS” (AC IMMUNE SA, priority 2006, published 2010).

The target in data set [1] is T1, Aβ1-42 (Homo sapiens, UniProt P05067).
T1 construct: Aβ1-42 lyophilized powder (Bachem) was reconstituted in hexafluoroisopropanol (HFIP) to 1 mM; purchased Bachem
Briefly: Thioflavin T spectrofluorescence assay: inhibition of Aβ1-42 aggregation. The format is biochemical. The method, then: (§1) The objective of this example was to evaluate the capacity of the compounds of the invention to inhibit the aggregation of (Aβ)1-42 peptide and to disaggregate pre-aggregated Aβ1-42 using a thioflavin T spectrofluorescence assay.
(§2) Aβ1-42 lyophilized powder (Bachem) was reconstituted in hexafluoroisopropanol (HFIP) to 1 mM. The peptide solution was sonicated for 15 min at room temperature, agitated overnight, and aliquots were placed into non-siliconized microcentrifuge tubes. The HFIP was then evaporated under a stream of argon. The resulting peptide film was dried under vacuum for 10 min, tightly sealed and stored at −80° C. until used.
Aβ1-42 peptide film was dissolved in DMSO to reach 400 μM. Assay solution in PBS was prepared in non-siliconized incubation tubes to reach the following concentrations: 330 μM small molecule, 33 μM Aβ1-42, 10 μM thioflavin T (ThT), and 12.8% DMSO. Therefore, the final molar ratio of small molecule to Aβ1-42 was 10:1. A positive control without a small molecule was prepared to measure maximum RFU. A negative control without Aβ1-42 was prepared for each small molecule. 3-aminopyrazole trimer (Trimer) was tested in all assays to ascertain reproducibility between independent experiments. The solutions were then incubated for 24 h at 37° C., and the spectrofluorescence (relative fluorescence units; RFU) read in six replicates in black 384-well assay plates (Perkin-Elmer) on a Perkin-Elmer FluoroCount spectrofluorometer. Inhibition of aggregation is expressed as mean % inhibition±1 standard deviation (SD) according to the following equation: […]

Data set [2] addresses T2, preformed Aβ1-42 fibers (Homo sapiens, UniProt P05067).
T2 construct: Aβ1-42 lyophilized powder (Bachem) was reconstituted in hexafluoroisopropanol (HFIP) to 1 mM; purchased Bachem
Briefly: Thioflavin T spectrofluorescence assay: disaggregation of preformed Aβ1-42 fibers. The format is biochemical. The following applies: Table 5; 330 μM small molecule, 10:1 molar ratio to pre-aggregated Aβ1-42, additional 24 h at 37° C.; mean ± SD of two independent experiments. Here is the method: as §1, §2
This solution was then allowed to aggregate at 37° C. for 24 h after which a small molecule and ThT were added to obtain a final concentration of 330 μM small molecule and 10 μM ThT. […] This solution was then incubated for additional 24 h at 37° C. The spectrofluorescence was then measured and % disaggregation calculated. Disaggregation is expressed as mean % disaggregation±1 standard deviation (SD) according to the same equation as for the inhibition of aggregation.

Where [3] appears, read: Table 3, 10:1 small molecule to Aβ1-42 molar ratio, 24 h at 37° C., mean ± SD of two independent experiments, read-out: % Inhibition.

The structures appear in SMILES notation. Where a name gives a salt, the structure may show the parent alone. Read-outs that look alike come from different tables or passages of the source. Bounds are passed on as bounds.

T1 sequence (P05067 672-713 limits assumed): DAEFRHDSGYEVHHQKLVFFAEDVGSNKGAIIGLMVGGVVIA
T2 sequence (P05067 672-713 limits assumed): as above

With `Cc1ccc(-c2cc(NCCNc3cc(-c4ccc(Cl)cc4)[nH]n3)n[nH]2)cc1` (as salt: hydrochloride) [Compound 1ae, N-(5-(4-Chlorophenyl)-1H-pyrazol-3-yl)-N′-(5-p-tolyl-1H-pyrazol-3-yl)ethane-1,2-diamine bishydrochloride], the melting point turned out to be 182 °C.

`Fc1ccc(-c2cc(NCCNc3cc(-c4ccc(F)cc4)[nH]n3)n[nH]2)cc1` (as salt: hydrochloride) [Compound 1ak, N^1,N^2-bis(5-(4-Fluorophenyl)-1H-pyrazol-3-yl)ethane-1,2-diamine bishydrochloride]: the melting point lay in the range of 239 to 240 °C.

Turning to `c1ccc(-c2ccc(-c3cc(NCCNc4cc(-c5ccc(-c6ccccc6)cc5)[nH]n4)n[nH]3)cc2)cc1` (as salt: hydrochloride) [Compound 1am, N^1-(5-(Biphenyl-4-yl)-1H-pyrazol-3-yl)-N^2-(3-(biphenyl-4-yl)-1H-pyrazol-5-yl)ethane-1,2-diamine bishydrochloride], the melting point lay in the range of 220 to 222 °C.

Compound `Cc1ccc(-c2cc(NC(=O)CNc3cc(-c4cccs4)[nH]n3)n[nH]2)cc1` [Compound 1z, 2-(5-(Thiophen-2-yl)-1H-pyrazol-3-ylamino)-N-(5-p-tolyl-1H-pyrazol-3-yl)acetamide] gave a melting point of 227 °C. For the same compound, the inhibition at 330 µM in data set [1] (setting [3]) is 22.1 ± 12.5%.

In turn, `Cc1ccc(-c2cc(NCc3ccc(CNc4cc(-c5ccc(C)cc5)[nH]n4)cc3)n[nH]2)cc1` (as salt: hydrochloride) [Compound 1ap, N,N′-(1,4-Phenylenebis(methylene))bis(5-p-tolyl-1H-pyrazol-3-amine) dihydrochloride] registered a melting point of 184 °C.

Compound `COc1ccc(-c2cc(NCCNc3cc(-c4ccc(OC)cc4)[nH]n3)n[nH]2)cc1` [Compound 1g, N^1,N^2-bis(5-(4-Methoxyphenyl)-1H-pyrazol-3-yl)ethane-1,2-diamine bishydrochloride] showed an inhibition at 330 µM in data set [1] (24 h) of 68.2 ± 7.7%. Also, the “% disaggregation” value in data set [2] was 66.6 ± 4.2%.

For the compound `O=C(CNc1cc(-c2ccc(Cl)cc2)[nH]n1)Nc1cc(-c2cccs2)[nH]n1` [Compound 1ag, N-(5-(Thiophen-2-yl)-1H-pyrazol-3-yl)-2-(5-(4-chlorophenyl)-1H-pyrazol-3-ylamino)acetamide], the melting point turned out to be 257 °C. In data set [1] (setting [3]), the inhibition at 330 µM stood at 20.8 ± 5.7%.

On to `c1c(NCCNc2cc(C3CC3)[nH]n2)n[nH]c1C1CC1` (as salt: hydrochloride) [Compound 1i, N^1,N^2-bis(5-Cyclopropyl-1H-pyrazol-3-yl)ethane-1,2-diamine bishydrochloride], for which the melting point is 205 to 206 °C.

Regarding `c1ccc(-c2cc(NCCNc3cc(-c4ccccn4)[nH]n3)n[nH]2)nc1` (as salt: hydrochloride) [Compound 1al, N^1,N^2-bis(5-(Pyridin-2-yl)-1H-pyrazol-3-yl)ethane-1,2-diamine tetra-hydrochloride], the melting point is > 250 °C.

As to `Cc1ccc(-c2cc(NCC(=O)Nc3cc(-c4ccc(C)cc4)[nH]n3)n[nH]2)cc1` [Compound 1y, N-(5-p-Tolyl-1H-pyrazol-3-yl)-2-(5-p-tolyl-1H-pyrazol-3-ylamino)acetamide], the melting point was 238 °C. Also, the inhibition at 330 µM in data set [1] (setting [3]) is 30.7 ± 3.8%.

As for `Cc1ccc(-c2cc(NCC(=O)Nc3cc(C)[nH]n3)n[nH]2)cc1` [Compound 1x, N-(5-Methyl-1H-pyrazol-3-yl)-2-(5-p-tolyl-1H-pyrazol-3-ylamino)acetamide], the melting point turned out to be 180 °C. For the same compound, the inhibition at 330 µM in data set [1] (setting [3]) worked out at 35.9 ± 4.7%.

Consider `c1[nH]nc(NCCNc2n[nH]cc2C2CC2)c1C1CC1` (as salt: hydrochloride) [Compound 1v, N^1,N^2-bis(4-Cyclopropyl-1H-pyrazol-3-yl)ethane-1,2-diamine bishydrochloride], for which the melting point is 178 to 182 °C (dec.).

On to `Cc1ccc(-c2cc(NCC(C)(C)CNc3cc(-c4ccc(C)cc4)[nH]n3)n[nH]2)cc1` (as salt: hydrochloride) [Compound 1an, dihydrochloride], for which the melting point came to 151 °C.

In turn, `c1ccc(-c2cc(NCCNc3cc(-c4ccccc4)[nH]n3)n[nH]2)cc1` (as salt: hydrochloride) [Compound 1e, N^1,N^2-bis(5-Phenyl)-1H-pyrazol-3-yl)ethane-1,2-diamine bishydrochloride] showed a melting point of 204 °C.

`Cc1ccc(-c2cc(NCc3cccc(CNc4cc(-c5ccc(C)cc5)[nH]n4)c3)n[nH]2)cc1` (as salt: hydrochloride) [Compound 1ao, N,N′-(1,3-Phenylenebis(methylene))bis(5-p-tolyl-1H-pyrazol-3-amine) dihydrochloride] gave a melting point of 183 °C.

On to `c1coc(-c2cc(NCCNc3cc(-c4ccco4)[nH]n3)n[nH]2)c1` (as salt: hydrochloride) [Compound 1m, N^1,N^2-bis(5-(2-Furyl)-1H-pyrazol-3-yl)ethane-1,2-diamine bishydrochloride], for which the melting point lay within 214 to 216 °C.

For the compound `O=C(CNc1cc(-c2cccs2)[nH]n1)Nc1cc(-c2ccc(Cl)cc2)[nH]n1` [Compound 1af, 2-(5-(Thiophen-2-yl)-1H-pyrazol-3-ylamino)-N-(5-(4-chlorophenyl)-1H-pyrazol-3-yl)acetamide], the melting point was 233 °C. The inhibition at 330 µM in data set [1] (setting [3]) was 37.6 ± 10.4%.

In the case of `FC(F)(F)c1cccc2[nH]nc(NCCNc3n[nH]c4cccc(C(F)(F)F)c34)c12` (as salt: hydrochloride) [Compound 1ai, N,N′-bis(4-(Trifluoromethyl)-1H-indazol-3-yl)ethane-1,2-diamine bishydrochloride], the melting point was 222 °C.

Regarding `Clc1ccc(-c2cc(NCCNc3cc(-c4cccs4)[nH]n3)n[nH]2)cc1` (as salt: hydrochloride) [Compound 1ah, N-(5-(4-Chlorophenyl)-1H-pyrazol-3-yl)-N′-(5-(thiophen-2-yl)-1H-pyrazol-3-yl)ethane-1,2-diamine bishydrochloride], the melting point turned out to be 139 °C.

With `Cc1ccc(-c2cc(NC(=O)CNc3cc(-c4ccc(Cl)cc4)[nH]n3)n[nH]2)cc1` [Compound 1ad, 2-(5-(4-Chlorophenyl)-1H-pyrazol-3-ylamino)-N-(5-p-tolyl-1H-pyrazol-3-yl)acetamide], the melting point is 251 °C. Besides, the inhibition at 330 µM in data set [1] (setting [3]) is 55 ± 11.9%.

In turn, `Clc1ccc(-c2cc(NCCNc3cc(-c4ccc(Cl)cc4)[nH]n3)n[nH]2)cc1` (as salt: hydrochloride) [Compound 1f, N^1,N^2-bis(5-(4-Chlorophenyl)-1H-pyrazol-3-yl)ethane-1,2-diamine bishydrochloride] gave a melting point of 195 °C.

Take `Clc1ccc(-c2c[nH]nc2NCCNc2n[nH]cc2-c2ccc(Cl)cc2)cc1` (as salt: hydrochloride) [Compound 1s, N^1,N^2-bis(4-(4-Chlorophenyl)-1H-pyrazol-3-yl)ethane-1,2-diamine bishydrochloride]: the melting point came to 228 °C.

For `c1ccc(Cc2cc(NCCNc3cc(Cc4ccccc4)[nH]n3)n[nH]2)cc1` (as salt: hydrochloride) [Compound 1l, N^1,N^2-bis(5-Benzyl-1H-pyrazol-3-yl)ethane-1,2-diamine dihydrochloride], the melting point is 177 to 178 °C.

As for `Cc1ccc(-c2cc(NCC(=O)Nc3cc(-c4ccc(Cl)cc4)[nH]n3)n[nH]2)cc1` [Compound 1ac, N-(5-(4-Chlorophenyl)-1H-pyrazol-3-yl)-2-(5-p-tolyl-1H-pyrazol-3-ylamino)acetamide], the melting point came to 257 °C. For the same compound, in data set [1] (setting [3]), the inhibition at 330 µM turned out to be 12.4 ± 5.1%.

Turning to `Cc1ccc(-c2cc(NCC(=O)Nc3cc(-c4cccs4)[nH]n3)n[nH]2)cc1` [Compound 1aa, N-(5-(Thiophen-2-yl)-1H-pyrazol-3-yl)-2-(5-p-tolyl-1H-pyrazol-3-ylamino)acetamide], the melting point was 246 °C. In addition, in data set [1] (setting [3]), the inhibition at 330 µM was 50.4 ± 0.9%.

In turn, `c1csc(-c2cc(NCCNc3cc(-c4cccs4)[nH]n3)n[nH]2)c1` (as salt: hydrochloride) [Compound 1h, N^1,N^2-bis(5-(2-Thienyl)-1H-pyrazol-3-yl)ethane-1,2-diamine bishydrochloride] registered a melting point of 147 °C.

Usually melting point stands for the temperature, or range, at which the solid turns liquid. For orientation: inhibition means the relative decrease from the control value, in per cent.
